Measurements as given in patent publication US20230272062A1, “Treatment Of Lung Disease Based Upon Stratification Of Polygenic Score Relating To Response To A Therapeutic Agent” (Regeneron Pharmaceuticals, Inc., priority 2021, published 2023).
“Also recorded” adds a separate entry of the source.

Key:
[1] = Annualized exacerbation rate in dupilumab-treated subjects stratified by FEV1-PS; type: in vivo, human; conditions: European subjects, by FEV1-PS quartile (FIG. 3)
Source text: The covariates were AGE, SEX, STUDYID, ICS_FL, EOSBL_300 FL, ASMANUM_LOG, HGTBL, FEV1BL, and PC1-4. The FEV1-PS was divided into quartiles and ranked from lowest to highest, the number at the bottom of each bar is the number of subjects in each group, and the number inside each bar is the change in annualized exacerbation rate.

[2] = Change of FEV1 in dupilumab-treated subjects stratified by FEV1-PS; type: in vivo, human; conditions: European subjects
Source text: The covariates were AGE, SEX, STUDYID (study identifier), ICS_FL (taking inhaled corticosteroids at baseline; yes/no), EOSBL_300 FL (eosinophils >300 at baseline), ASMANUM_LOG (exacerbation history for the previous year), HGTBL (height baseline), FEV1BL, and PC1-4 (principal components 1-4). The FEV1-PS was divided into quartiles and ranked from lowest to highest, the number at the bottom of each bar is the number of subjects in each group, and the number inside each bar is the change in FEV1 values at week 12.
The covariates were AGE, SEX, STUDYID, ICS_FL, EOSBL_300 FL, ASMANUM_LOG, HGTBL, FEV1BL, and PC1-4.

dupilumab
annualized exacerbation rates [1]: not associated with differences in annualized exacerbation rates | longitudinal increase of change of FEV1 ([2]; by FEV1-PS (FIG. 2)): significantly associated with better FEV1 improvement; also recorded: greatest FEV1 improvement | change of FEV1 at week 12 ([2]; by FEV1-PS quartile, compared to placebo-treated patients (FIG. 1)): significantly associated with better FEV1 improvement; also recorded: greatest improvement in FEV1
